The IC50 is the concentration that inhibits the measured activity by half.

In the assay the target is (recombinant) catalytic domain of human Bub1 (amino acids 704-1085) (Homo sapiens (Human), UniProt O43683). The assay can be described thus: Bub1 kinase assay (TR-FRET). In kind it is biochemical. As to conditions: ATP 10 μM final, peptide substrate 1 μM final, 60 min at 22° C., read-out: Biological Assay: Bub1 kinase assay median IC50. Here is the method: Examples were tested in selected biological assays one or more times. When tested more than once, data are reported as either average values or as median values, wherein • the average value, also referred to as the arithmetic mean value, represents the sum of the values obtained divided by the number of times tested, and • the median value represents the middle number of the group of values when ranked in ascending or descending order. If the number of values in the data set is odd, the median is the middle value. If the number of values in the data set is even, the median is the arithmetic mean of the two middle values.
Sequence of (recombinant) catalytic domain of human Bub1 (amino acids 704-1085) (O43683 704-1085): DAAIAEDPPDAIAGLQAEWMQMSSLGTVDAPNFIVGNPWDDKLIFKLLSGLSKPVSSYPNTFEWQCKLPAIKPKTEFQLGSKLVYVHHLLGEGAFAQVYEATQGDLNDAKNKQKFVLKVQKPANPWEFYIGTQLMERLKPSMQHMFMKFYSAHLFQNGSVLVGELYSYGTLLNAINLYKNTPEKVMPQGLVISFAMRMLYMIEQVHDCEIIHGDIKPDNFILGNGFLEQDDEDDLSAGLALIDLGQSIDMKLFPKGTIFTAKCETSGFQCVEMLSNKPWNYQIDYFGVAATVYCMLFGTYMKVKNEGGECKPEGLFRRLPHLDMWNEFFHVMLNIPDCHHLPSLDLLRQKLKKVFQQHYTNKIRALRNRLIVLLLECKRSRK
To this end, 100-fold concentrated compound solutions (in DMSO) were previously prepared by serial dilution (1:3.4) of 2 mM stocks in a clear low volume 384-well source microtiter plate (Greiner Bio-One, Frickenhausen, Germany), from which 50 nl of compounds were transferred into a black low volume test microtiter plate from the same supplier. […] The resulting mixture (5 μL final volume) was incubated at 22° C. during 60 min., and the reaction was stopped by the addition of 5 μL of an aqueous EDTA-solution (50 mM EDTA, in 100 mM HEPES pH 7.5 and 0.2% (w/v) bovine serum albumin) which also contained the TR-FRET detection reagents (0.2 μM streptavidin-XL665 [Cisbio Bioassays, Codolet, France] and 1 nM anti-phosho-Serine antibody [Merck Millipore, cat. #35-002] and 0.4 nM LANCE EU-W1024 labeled anti-mouse IgG antibody [Perkin-Elmer, product no. AD0077, alternatively a Terbium-cryptate-labeled anti-mouse IgG antibody from Cisbio Bioassays can be used]). The stopped reaction mixture was further incubated 1 h at 22° C. in order to allow the formation of complexes between peptides and detection reagents. Subsequently, the amount of product was evaluated by measurement of the resonance energy transfer from the Eu-chelate-antibody complex recognizing the Phosphoserine residue to the streptavidin-XL665 bound to the biotin moiety of the peptide. […] The data were normalised using two sets of control wells for high- (=enzyme reaction without inhibitor=0%=Minimum inhibition) and low- (=all assay components without enzyme=100%=Maximum inhibition) Bub1 activity. IC50 values were calculated by fitting the normalized inhibition data to a 4-parameter logistic equation (Minimum, Maximum, IC50, Hill; Y=Max+(Min−Max)/(1+(X/IC50)Hill)).
For the molecule `Cc1ccc(Nc2c(-c3ccncc3)[nH]c3c2C(=O)CC(C)(C)C3)cc1` [Example 54, 6,6-dimethyl-3-[(4-methylphenyl)amino]-2-(pyridin-4-yl)-1,5,6,7-tetrahydro-4H-indol-4-one], the IC50 is 148 nM. Regarding `CC1(C)CC(=O)c2c([nH]c(-c3ccnnc3)c2Nc2ccccc2)C1` [Example 55, 6,6-dimethyl-3-(phenylamino)-2-(pyridazin-4-yl)-1,5,6,7-tetrahydro-4H-indol-4-one], the IC50 was 449 nM. `COc1cccc(Nc2c(-c3ccncc3)[nH]c3c2C(=O)CC(C)(C)C3)c1OC` [Example 56, 3-[(2,3-dimethoxyphenyl)amino]-6,6-dimethyl-2-(pyridin-4-yl)-1,5,6,7-tetrahydro-4H-indol-4-one]: the IC50 is 654 nM. `COc1ccc(Nc2c(-c3ccncc3)[nH]c3c2C(=O)CC(C)(C)C3)cc1OC` [Example 58, 3-[(3,4-dimethoxyphenyl)amino]-6,6-dimethyl-2-(pyridin-4-yl)-1,5,6,7-tetrahydro-4H-indol-4-one]: the IC50 was found to be 20000 nM. With `COc1ccc(Nc2c(-c3ccncc3)[nH]c3c2C(=O)CC(C)(C)C3)cc1` [Example 59, 3-[(4-methoxyphenyl)amino]-6,6-dimethyl-2-(pyridin-4-yl)-1,5,6,7-tetrahydro-4H-indol-4-one] the figure was 422 nM.

As to `CC1(C)CC(=O)c2c([nH]c(-c3ccncc3)c2Nc2ccccc2F)C1` [Example 60, 3-[(2-fluorophenyl)amino]-6,6-dimethyl-2-(pyridin-4-yl)-1,5,6,7-tetrahydro-4H-indol-4-one], the IC50 is 95.2 nM.

Regarding `CC1(C)CC(=O)c2c([nH]c(-c3ccncc3)c2Nc2ccccc2Cl)C1` [Example 61, 3-[(2-chlorophenyl)amino]-6,6-dimethyl-2-(pyridin-4-yl)-1,5,6,7-tetrahydro-4H-indol-4-one], the IC50 worked out at 68.5 nM.

As for `COc1ccc(Nc2c(-c3ccncc3)[nH]c3c2C(=O)CC(C)(C)C3)c(OC)c1` [Example 62, 3-[(2,4-dimethoxyphenyl)amino]-6,6-dimethyl-2-(pyridin-4-yl)-1,5,6,7-tetrahydro-4H-indol-4-one], the half-maximal inhibitory concentration (IC50) was 167 nM. To `CC1(C)CC(=O)c2c([nH]c(-c3ccncc3)c2Nc2cccnc2)C1` [Example 63, 6,6-dimethyl-2-(pyridin-4-yl)-3-(pyridin-3-ylamino)-1,5,6,7-tetrahydro-4H-indol-4-one] belongs 196 nM; to `CC1(C)CC(=O)c2c([nH]c(-c3ccncc3)c2Nc2cncc3ccccc23)C1` [Example 64, 3-(isoquinolin-4-ylamino)-6,6-dimethyl-2-(pyridin-4-yl)-1,5,6,7-tetrahydro-4H-indol-4-one], 1820 nM; to `CC1(C)CC(=O)c2c([nH]c(-c3ccncc3)c2Nc2cccc(N)c2)C1` [Example 65, 3-[(3-aminophenyl)amino]-6,6-dimethyl-2-(pyridin-4-yl)-1,5,6,7-tetrahydro-4H-indol-4-one], 525 nM. To `CC1(C)CC(=O)c2c([nH]c(-c3ccncc3)c2Nc2cnc3ccccc3c2)C1` [Example 66, 6,6-dimethyl-2-(pyridin-4-yl)-3-(quinolin-3-ylamino)-1,5,6,7-tetrahydro-4H-indol-4-one] belongs 2260 nM; to `CC1(C)CC(=O)c2c([nH]c(-c3ccncc3)c2Nc2ccc3occc3c2)C1` [Example 67, 3-(1-benzofuran-5-ylamino)-6,6-dimethyl-2-(pyridin-4-yl)-1,5,6,7-tetrahydro-4H-indol-4-one], 87.1 nM; to `CC1(C)CC(=O)c2c([nH]c(-c3ccncc3)c2Nc2ccc3cc[nH]c3c2)C1` [Example 68, 3-(1H-indol-6-ylamino)-6,6-dimethyl-2-(pyridin-4-yl)-1,5,6,7-tetrahydro-4H-indol-4-one], 84.2 nM. With `CC1(C)CC(=O)c2c([nH]c(-c3ccncc3)c2Nc2ccc3sccc3c2)C1` [Example 69, 3-(1-benzothiophen-5-ylamino)-6,6-dimethyl-2-(pyridin-4-yl)-1,5,6,7-tetrahydro-4H-indol-4-one] the figure was 76.4 nM.

In the case of `CC1(C)CC(=O)c2c([nH]c(-c3ccncc3)c2Nc2ccc3[nH]ccc3c2)C1` [Example 70, 3-(1H-indol-5-ylamino)-6,6-dimethyl-2-(pyridin-4-yl)-1,5,6,7-tetrahydro-4H-indol-4-one], the IC50 is 81.7 nM. As to `CC1(C)CC(=O)c2c([nH]c(-c3ccncc3)c2Nc2ccccc2Br)C1` [Example 71, 3-[(2-bromophenyl)amino]-6,6-dimethyl-2-(pyridin-4-yl)-1,5,6,7-tetrahydro-4H-indol-4-one], the IC50 is 49.7 nM. To `CC1(C)CC(=O)c2c([nH]c(-c3ccncc3)c2Nc2ccc(Br)cc2)C1` [Example 72, 3-[(4-bromophenyl)amino]-6,6-dimethyl-2-(pyridin-4-yl)-1,5,6,7-tetrahydro-4H-indol-4-one] belongs 47.1 nM; to `CC1(C)CC(=O)c2c([nH]c(-c3ccncc3)c2Nc2ccc3nc[nH]c3c2)C1` [Example 73, 3-(1H-benzimidazol-6-ylamino)-6,6-dimethyl-2-(pyridin-4-yl)-1,5,6,7-tetrahydro-4H-indol-4-one], 19900 nM; to `CC1(C)CC(=O)c2c([nH]c(-c3ccncc3)c2Nc2ccc3cn[nH]c3c2)C1` [Example 74, 3-(1H-indazol-6-ylamino)-6,6-dimethyl-2-(pyridin-4-yl)-1,5,6,7-tetrahydro-4H-indol-4-one], 82.3 nM.

As to `CC1(C)CC(=O)c2c([nH]c(-c3ccncc3)c2Nc2ccnc3ccccc23)C1` [Example 75, 6,6-dimethyl-2-(pyridin-4-yl)-3-(quinolin-4-ylamino)-1,5,6,7-tetrahydro-4H-indol-4-one], the half-inhibitory concentration (IC50) turned out to be 14100 nM. To `COc1ccc(OC)c(Nc2c(-c3ccncc3)[nH]c3c2C(=O)CC(C)(C)C3)c1` [Example 76, 3-[(2,5-dimethoxyphenyl)amino]-6,6-dimethyl-2-(pyridin-4-yl)-1,5,6,7-tetrahydro-4H-indol-4-one] belongs 4270 nM. With `CC1(C)CC(=O)c2c([nH]c(-c3ccncc3)c2Nc2cc(Cl)cc(Cl)c2)C1` [Example 77, 3-[(3,5-dichlorophenyl)amino]-6,6-dimethyl-2-(pyridin-4-yl)-1,5,6,7-tetrahydro-4H-indol-4-one] the figure was 1550 nM; with `CC1(C)CC(=O)c2c([nH]c(-c3ccncc3)c2Nc2cc(Cl)ccc2Cl)C1` [Example 78, 3-[(2,5-dichlorophenyl)amino]-6,6-dimethyl-2-(pyridin-4-yl)-1,5,6,7-tetrahydro-4H-indol-4-one], 6950 nM. With `CC1(C)CC(=O)c2c([nH]c(-c3ccncc3)c2Nc2cccc(C#N)c2)C1` [Example 79, 3-{[6,6-dimethyl-4-oxo-2-(pyridin-4-yl)-4,5,6,7-tetrahydro-1H-indol-3-yl]amino}benzonitrile], the IC50 stood at 133 nM. On to `CC1(C)CC(=O)c2c([nH]c(-c3ccncc3)c2Nc2cccc(OCc3ccccc3)c2)C1` [Example 80, 3-{[3-(benzyloxy)phenyl]amino}-6,6-dimethyl-2-(pyridin-4-yl)-1,5,6,7-tetrahydro-4H-indol-4-one], for which the IC50 stood at 188 nM. To `Cc1cc(Nc2c(-c3ccncc3)[nH]c3c2C(=O)CC(C)(C)C3)ccc1F` [Example 81, 3-[(4-fluoro-3-methylphenyl)amino]-6,6-dimethyl-2-(pyridin-4-yl)-1,5,6,7-tetrahydro-4H-indol-4-one] belongs 44.3 nM. With `Cc1ccc(F)c(Nc2c(-c3ccncc3)[nH]c3c2C(=O)CC(C)(C)C3)c1` [Example 82, 3-[(2-fluoro-5-methylphenyl)amino]-6,6-dimethyl-2-(pyridin-4-yl)-1,5,6,7-tetrahydro-4H-indol-4-one], the IC50 came to 510 nM. With `CCc1ccc(Nc2c(-c3ccncc3)[nH]c3c2C(=O)CC(C)(C)C3)cc1` [Example 83, 3-[(4-ethylphenyl)amino]-6,6-dimethyl-2-(pyridin-4-yl)-1,5,6,7-tetrahydro-4H-indol-4-one], the IC50 is 293 nM. In the case of `CCc1ccccc1Nc1c(-c2ccncc2)[nH]c2c1C(=O)CC(C)(C)C2` [Example 84, 3-[(2-ethylphenyl)amino]-6,6-dimethyl-2-(pyridin-4-yl)-1,5,6,7-tetrahydro-4H-indol-4-one], the IC50 is 127 nM.

Consider `CC(C)c1cccc(Nc2c(-c3ccncc3)[nH]c3c2C(=O)CC(C)(C)C3)c1` [Example 85, 6,6-dimethyl-3-{[3-(propan-2-yl)phenyl]amino}-2-(pyridin-4-yl)-1,5,6,7-tetrahydro-4H-indol-4-one], for which the IC50 was found to be 73.5 nM.

(Values after US10428044B2, “3-amino-1,5,6,7-tetrahydro-4H-indol-4-ones” (Bayer Pharma Aktiengesellschaft, priority 2014, dated 2019).)
